Legend:
[1] = system: Lentil (CDC Maxim); assay: Lentil (CDC Maxim) seed germination assay; assay type: in vivo
Procedure: 40 seeds were counted for each 100×15 mm petri dishes. Each petri dish contained two filter papers and 10 mL of test solutions. Then, they were wrapped with aluminium foil to cut off light. Wrapped plates were kept on lab bench at room temperature. Germinated seeds were counted everyday until one treatment reaches 100% germination (two days). Only light exposure was during plate counting. […]
All seeds from this experiment have been rinsed first with tap water and then with dH2O, frozen in liquid nitrogen and stored at −80° C. freezer.

[2] = system: Canola seed (Nutrien PV200); assay: Canola seed germination assay; assay type: in vivo
Procedure: For each treatment 6 replicates of 40 seeds were plated into petri dishes lined with two filter papers and 10 mL of test solution. The covered dishes were stored at room temperature in the dark. Germinated seeds were counted every 2 days for 8 days. The following dosages were used when studying the effect of exemplary compounds on canola germination: control 1% DMSO. 10 μM ABA, 100 μM 1019, and 100 μM 1019 plus 10 μM ABA.

[3] = system: rice; assay: Rice radical elongation assay; assay type: in vivo; details: 10 μM 1019 alone, 4.5 days post treatment (FIG. 11A)
Procedure: Seeds were surface sterilized by incubation in 10% bleach for 20 min with shaking, then rinsed four times with sterile water. Four ml of test solutions were pipetted into petri dishes (100×15 mm) that contain a single filter paper. Fifteen seeds were added to each dish. For rice, barely, and wheat, the experiment involved five treatments (5 μM ABA; 5 μM ABA+10 μM 1019; 10 μM 1019; water control; water+EtOH+NaOH control), with three replications per treatment. For sorghum, treatments were 10 μM ABA; 10 μM ABA+20 μM 1019; 20 μM 1019; water control; water+EtOH+NaOH control. Dishes were sealed with Parafilm, and incubated in the dark at room temperature. Radical length was measured daily post emergence using ImageJ software; shown are 3 days post treatment for barley, wheat and sorghum and 4.5 days post treatment for rice.

[4] = system: wild and RIL lentil genotypes; assay: Seed germination in wild and RIL populations of lentil genotypes; assay type: in vivo, lentil (L. orientalis, L. nigricans and others)
Text: (§1) Fifty four lentil genotypes were selected for the experiment based on the existing data on the number of days it takes them to emerge and days to flowering. The seeds of each genotype were scarified before sowing and subjected to 3 treatments. VWR 415 9 cm filter papers were placed inside VWR 100 mm plastic petri dishes. Each petri dish was labeled on both the top and the bottom. Ten seed from each line was place in a labelled petri dish. Each lentil or faba bean genotype was replicated 3 times and subjected to 3 treatments (total number of experimental petri dishes=531). Thus: • 1. ABA exemplary compound solution [10 μM exemplary ABA analog compound 1019 in 1% DMSO, 99% H2O (LL10.1014.1) NaSaH (SL-1-16-1-53)] • 2. No exemplary ABA analogue solution (1% DMSO, 99% H2O) • 3. Distilled water—control
(§2) Seven milliliters of either exemplary ABA analogue solution, solution with no exemplary ABA analogue or distill water (control) was added into the corresponding labelled petri dishes containing the 10 scarified lentil seeds. For faba, bean, 10 ml because of their large seed size. The petri dishes were placed in a dark cupboard. Two digital temperature and humidity loggers (Tinytag) were placed inside the cupboards to monitor environmental conditions.
Germination was considered for a seed when a tiny radicle at least 5 mm or greater had emerged from the seed. The number of seeds that germinated was counted and recorded at 48 and 96 hours; and at 7 days. Some of the genotypes of interest were photographed (AF-S Micro NIKKOR 60 mm 1:2.8G camera) for comparison purpose. However, an excel sheet showing all results is available. At 48 hours, a total of 22 genotypes and their replicates were selected from the petri dishes treated with exemplary compound and distilled water were transplanted into pots (for faba bean) and trays (for lentils) in order to assess the length of time they took to flower while the rest of the petri dishes were kept till the end of the experiment that lasted a week.
The average temperature in the cupboards was 22.5° C. (±0.3) while the relative humidity ranged from 52.4 to 80.7 percent for the duration of the experiment. Studies carried out by Linda Gorim and Devini De. Silva, University of Saskatchewan

[5] = system: faba bean; assay: Faba bean seed germination and flowering; assay type: in vivo; details: 10 μM compound
Text: as §1
as §2, with “Two digital temperature and humidity loggers (Tinytag) were placed inside the cupboards to monitor environmental conditions.” left out
Germination was considered for a seed when a tiny radicle at least 5 mm or greater had emerged from the seed. The number of seeds that germinated was counted and recorded at 48 and 96 hours; and at 7 days. […]

CC1=C(C#Cc2ccccc2)C(=O)CC(C)(C)[C@@]1(O)/C=C/C(C)=C\C(=O)O [Compound 1019, (2Z,4E)-5-((S)-1-Hydroxy-2,6,6-trimethyl-4-oxo-3-(phenylethynyl)cyclohex-2-en-1-yl)-3-methylpenta-2,4-dienoic acid] was tested, and the “lentil seed germination, antagonism of ABA” value ([1]; 10 μM ABA plus 10 μM compound (FIG. 6C)) was “strongest antagonist”, the lentil seed germination ([1]; 10 μM compound and 10 μM compound plus 10 μM ABA (FIG. 5)) was “promoted” and the lentil seed germination ([1]; 100 μM compound plus 10 μM ABA (FIG. 6B)) was “overcame the effect”. The canola seed germination ([2]; 100 μM compound alone, compared to control) was “did not significantly affect”, the canola seed germination ([2]; 100 μM compound plus 10 μM ABA) was “restored to near control levels” and the “radical length (Least Square mean); radical elongation” value [3] was 1.036. It also gave a germination ([4]; L. nigricans IG-72551 seeds, at 2 days, 10 μM compound) of 100%, a germination ([4]; L. orientalis IG72770, day 2, 10 μM compound) of 40% and a germination ([4]; L. orientalis IG72770, day 3, 10 μM compound) of 75%. The germination ([4]; L. orientalis IG72770, day 4, 10 μM compound) was 100%, the “germination uniformity between replicates” value ([4]; all genotypes that responded, 10 μM compound) was “eliminated the variable germination rates” and the days to flowering ([4]; lentil, transplanted at 48 hours, 10 μM compound) was “nor did it significantly affect”. The “number of lentil genotypes that responded positively (improved germination rate)” value ([4]; of 54 lentil genotypes screened, over 4 days, 10 μM compound) was 18, the germination rates [5] was “no significant effect” and the days to flowering ([5]; transplanted at 48 hours) was “nor did it significantly affect”.
